ChEMBL document CHEMBL1201862, “PubChem BioAssay data set” (2004)
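A five-concentration, 48-hour dose response in 96-well plates underlies each endpoint, interpolated linearly between surrounding concentrations. The concentration for 50% growth inhibition is given as GI50.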 Calls of active or inactive are those of the source. Rule as the data show it: active = GI50 up to about 1.1 µM and inactive = higher.

How the values were obtained:
Experiment in all cases: inhibition of tumour cell growth, NCI panel, 48 h
NCI-H460 = system: NCI-H460
HCC 2998 = system: HCC 2998
HL-60 = system: HL-60
HT-29 = system: HT-29
M14 = system: M14
TK-10 = system: TK-10
SK-MEL-2 = system: SK-MEL-2
KM12 = system: KM12
LOX IMVI = system: LOX IMVI
NCI-H522 = system: NCI-H522
CAKI-1 = system: CAKI-1
LXFL 529 = system: LXFL 529
EKVX = system: EKVX
DMS-114 = system: DMS-114
SF-539 = system: SF-539
NCI-H226 = system: NCI-H226
SW-620 = system: SW-620
HOP-92 = system: HOP-92
SN12C = system: SN12C
SK-OV-3 = system: SK-OV-3
HOP-62 = system: HOP-62
UACC-62 = system: UACC-62
SK-MEL-5 = system: SK-MEL-5
SR = system: SR
NCI-H23 = system: NCI-H23
XF498 = system: XF498
RXF 393 = system: RXF 393
HCT-116 = system: HCT-116
Malme-3M = system: Malme-3M
UACC-257 = system: UACC-257
K562 = system: K562
OVCAR-5 = system: OVCAR-5
MOLT-4 = system: MOLT-4
OVCAR-4 = system: OVCAR-4
SNB-78 = system: SNB-78
ACHN = system: ACHN
SF-295 = system: SF-295
OVCAR-3 = system: OVCAR-3
CCRF-CEM = system: CCRF-CEM
IGROV-1 = system: IGROV-1
M19-MEL = system: M19-MEL
RXF 631 = system: RXF 631
786-0 = system: 786-0
DLD-1 = system: DLD-1
UO-31 = system: UO-31
OVCAR-8 = system: OVCAR-8
A549 = system: A549
SNB-19 = system: SNB-19
RPMI-8226 = system: RPMI-8226
HOP-18 = system: HOP-18
SF-268 = system: SF-268
U-251 = system: U-251
SK-MEL-28 = system: SK-MEL-28
COLO 205 = system: COLO 205
DMS-273 = system: DMS-273
KM-20L2 = system: KM-20L2
A498 = system: A498
HCT-15 = system: HCT-15
SNB-75 = system: SNB-75

CC(=O)/C(=C\c1ccccc1)C(=O)Nc1ccccc1
GI50 (NCI-H460): > 100 µM (inactive)
GI50 (HCC 2998): > 100 µM (inactive)
GI50 (HL-60): > 100 µM (inactive)
GI50 (HT-29): > 100 µM (inactive)
GI50 (M14): > 100 µM (inactive)
GI50 (TK-10): > 100 µM (inactive)
GI50 (SK-MEL-2): > 100 µM (inactive)
GI50 (KM12): > 100 µM (inactive)
GI50 (LOX IMVI): > 100 µM (inactive)
GI50 (NCI-H522): > 100 µM (inactive)
GI50 (CAKI-1): > 100 µM (inactive)
GI50 (LXFL 529): > 100 µM (inactive)
GI50 (EKVX): > 100 µM (inactive)
GI50 (DMS-114): > 100 µM (inactive)
GI50 (SF-539): > 100 µM (inactive)
GI50 (NCI-H226): > 100 µM (inactive)
GI50 (SW-620): > 100 µM (inactive)
GI50 (HOP-92): > 100 µM (inactive)
GI50 (SN12C): > 100 µM (inactive)
GI50 (SK-OV-3): > 100 µM (inactive)
GI50 (HOP-62): > 100 µM (inactive)
GI50 (UACC-62): > 100 µM (inactive)
GI50 (SK-MEL-5): > 100 µM (inactive)
GI50 (SR): > 100 µM (inactive)
GI50 (NCI-H23): > 100 µM (inactive)
GI50 (XF498): > 100 µM (inactive)
GI50 (RXF 393): > 100 µM (inactive)
GI50 (HCT-116): > 100 µM (inactive)
GI50 (Malme-3M): > 100 µM (inactive)
GI50 (UACC-257): > 100 µM (inactive)
GI50 (K562): > 100 µM (inactive)
GI50 (OVCAR-5): > 100 µM (inactive)
GI50 (MOLT-4): > 100 µM (inactive)
GI50 (OVCAR-4): > 100 µM (inactive)
GI50 (SNB-78): > 100 µM (inactive)
GI50 (ACHN): > 100 µM (inactive)
GI50 (SF-295): 44.1 µM (inactive)
GI50 (OVCAR-3): > 100 µM (inactive)
GI50 (CCRF-CEM): > 100 µM (inactive)
GI50 (IGROV-1): > 100 µM (inactive)
GI50 (M19-MEL): > 100 µM (inactive)
GI50 (RXF 631): > 100 µM (inactive)
GI50 (786-0): > 100 µM (inactive)
GI50 (DLD-1): > 100 µM (inactive)
GI50 (UO-31): > 100 µM (inactive)
GI50 (OVCAR-8): > 100 µM (inactive)
GI50 (A549): > 100 µM (inactive)
GI50 (SNB-19): > 100 µM (inactive)
GI50 (RPMI-8226): > 100 µM (inactive)
GI50 (HOP-18): > 100 µM (inactive)
GI50 (SF-268): > 100 µM (inactive)
GI50 (U-251): > 100 µM (inactive)

C=CCN(N=O)C(=O)ON1C(=O)CCC1=O
GI50 (NCI-H460): > 100 µM (inactive)
GI50 (HCC 2998): > 100 µM (inactive)
GI50 (HL-60): > 100 µM (inactive)
GI50 (HT-29): > 100 µM (inactive)
GI50 (M14): > 100 µM (inactive)
GI50 (TK-10): > 100 µM (inactive)
GI50 (SK-MEL-2): > 100 µM (inactive)
GI50 (KM12): > 100 µM (inactive)
GI50 (LOX IMVI): > 100 µM (inactive)
GI50 (NCI-H522): 64.7 µM (inactive)
GI50 (LXFL 529): > 100 µM (inactive)
GI50 (EKVX): > 100 µM (inactive)
GI50 (DMS-114): > 100 µM (inactive)
GI50 (SF-539): > 100 µM (inactive)
GI50 (SW-620): > 100 µM (inactive)
GI50 (HOP-92): > 100 µM (inactive)
GI50 (SN12C): > 100 µM (inactive)
GI50 (SK-OV-3): > 100 µM (inactive)
GI50 (HOP-62): > 100 µM (inactive)
GI50 (UACC-62): > 100 µM (inactive)
GI50 (SK-MEL-28): > 100 µM (inactive)
GI50 (NCI-H23): > 100 µM (inactive)
GI50 (COLO 205): > 100 µM (inactive)
GI50 (RXF 393): > 100 µM (inactive)
GI50 (HCT-116): > 100 µM (inactive)
GI50 (Malme-3M): > 100 µM (inactive)
GI50 (UACC-257): > 100 µM (inactive)
GI50 (K562): > 100 µM (inactive)
GI50 (OVCAR-5): 0.0681 µM (active)
GI50 (MOLT-4): > 100 µM (inactive)
GI50 (OVCAR-4): > 100 µM (inactive)
GI50 (DMS-273): > 100 µM (inactive)
GI50 (SNB-78): > 100 µM (inactive)
GI50 (ACHN): > 100 µM (inactive)
GI50 (SF-295): > 100 µM (inactive)
GI50 (OVCAR-3): > 100 µM (inactive)
GI50 (CCRF-CEM): 85.9 µM (inactive)
GI50 (IGROV-1): > 100 µM (inactive)
GI50 (M19-MEL): > 100 µM (inactive)
GI50 (RXF 631): > 100 µM (inactive)
GI50 (786-0): > 100 µM (inactive)
GI50 (DLD-1): > 100 µM (inactive)
GI50 (UO-31): > 100 µM (inactive)
GI50 (OVCAR-8): > 100 µM (inactive)
GI50 (A549): > 100 µM (inactive)
GI50 (KM-20L2): > 100 µM (inactive)
GI50 (SNB-19): > 100 µM (inactive)
GI50 (RPMI-8226): > 100 µM (inactive)
GI50 (A498): > 100 µM (inactive)
GI50 (HOP-18): > 100 µM (inactive)
GI50 (HCT-15): > 100 µM
GI50 (SF-268): > 100 µM (inactive)
GI50 (SNB-75): 75.9 µM (inactive)
GI50 (U-251): 17.7 µM (inactive)

O=C1CC(C2(O)C(=O)Nc3ccc([N+](=O)[O-])cc32)c2ccccc21 (configuration not stated)
GI50 (NCI-H460): 16.3 µM (inactive)
GI50 (HCC 2998): 20.6 µM (inactive)
GI50 (HL-60): 14.8 µM (inactive)
GI50 (HT-29): 22.5 µM (inactive)
GI50 (M14): 18.9 µM (inactive)
GI50 (TK-10): > 100 µM (inactive)
GI50 (SK-MEL-2): 16.6 µM (inactive)
GI50 (KM12): 35.4 µM (inactive)
GI50 (LOX IMVI): 16.8 µM (inactive)
GI50 (NCI-H522): 11.2 µM (inactive)
GI50 (LXFL 529): 16.3 µM (inactive)
GI50 (EKVX): 28.6 µM (inactive)
GI50 (DMS-114): 9.48 µM (inactive)
GI50 (SF-539): 32.5 µM (inactive)
GI50 (NCI-H226): 14.7 µM (inactive)
GI50 (SW-620): 28.2 µM (inactive)
GI50 (HOP-92): 35 µM (inactive)
GI50 (SN12C): 31.8 µM (inactive)
GI50 (SK-OV-3): 36.5 µM (inactive)
GI50 (HOP-62): 64 µM (inactive)
GI50 (UACC-62): 19.5 µM (inactive)
GI50 (SK-MEL-5): 27.7 µM (inactive)
GI50 (SK-MEL-28): 24.8 µM (inactive)
GI50 (SR): 18.2 µM (inactive)
GI50 (NCI-H23): 26.7 µM (inactive)
GI50 (COLO 205): 25.4 µM (inactive)
GI50 (RXF 393): 24.8 µM (inactive)
GI50 (HCT-116): 31.3 µM (inactive)
GI50 (Malme-3M): 40.8 µM (inactive)
GI50 (UACC-257): 47.1 µM (inactive)
GI50 (K562): 19.7 µM (inactive)
GI50 (OVCAR-5): > 100 µM (inactive)
GI50 (MOLT-4): 20.7 µM (inactive)
GI50 (OVCAR-4): 20 µM (inactive)
GI50 (DMS-273): 20.9 µM (inactive)
GI50 (SNB-78): 31.6 µM (inactive)
GI50 (ACHN): 54.1 µM (inactive)
GI50 (SF-295): 34.1 µM (inactive)
GI50 (OVCAR-3): 25.4 µM (inactive)
GI50 (CCRF-CEM): 19.5 µM (inactive)
GI50 (IGROV-1): 17.8 µM (inactive)
GI50 (M19-MEL): 29.2 µM (inactive)
GI50 (RXF 631): 16.4 µM (inactive)
GI50 (786-0): 15.8 µM (inactive)
GI50 (DLD-1): 40 µM (inactive)
GI50 (UO-31): > 100 µM (inactive)
GI50 (OVCAR-8): 66.4 µM (inactive)
GI50 (A549): 62.4 µM (inactive)
GI50 (SNB-19): > 100 µM (inactive)
GI50 (RPMI-8226): 20.7 µM (inactive)
GI50 (A498): 72.8 µM (inactive)
GI50 (HOP-18): 28.1 µM (inactive)
GI50 (HCT-15): 18.2 µM
GI50 (SF-268): 18.5 µM (inactive)
GI50 (SNB-75): 39.5 µM (inactive)
GI50 (U-251): 17.7 µM (inactive)
